According to patent EP4173633B1, “PRODUCTS COMPRISING ESSENTIAL OIL OR EXTRACT WITH PHENOLIC COMPOUNDS OBTAINED FROM THE RESIDUAL WATER OF THE HYDRODISTILLATION OF EUCALYPTUS GLOBULUS LEAVES AND THEIR USES” (RAIZ - Instituto De Investigação Da Floresta E Papel, priority 2021, dated 2023):

Test system: NIH/3T3 fibroblasts
Assay: β-gal activity associated with senescence, etoposide-induced
Assay type: cell-based, mouse
Conditions: 12.5 µM etoposide 24 h alone; control 8.86%
Experimental: HaCaT and NIH/3T3 cells were seeded in 12-well plates at a density of 1.5 x 10^5 or 2.5 x 10^4 cells/well, respectively, and adhered for 24 h. Cell senescence was then induced in the HaCaT and NIH/3T3 lines by exposure to 100 µM etoposide (Sigma-Aldrich, St. Louis, MO, USA) for 72 h or 12.5 µM etoposide for 24 h, respectively. After the incubation period, senescent HaCaT and NIH/3T3 cells were treated in the absence or presence of EO (0.16 mg/mL) or HRW (0.8 µg/mL) for 24 h. In the case of NIH/3T3 cells, they were further treated for 24 h with bacterial cellulose membrane extract impregnated with glycerol and 2 µg/cm2 of extract with phenolic compounds obtained from wastewater from hydrodistillation (BC-G-HRW2), prepared from sterile samples (10 cm 2) incubated in 10 ml of DMEM exposure medium. As a control, cells not treated with etoposide were incubated with DMEM exposure medium or similarly prepared BC-G and BC-G-HRW2 membrane extracts. […] Finally, senescent cells were quantified using an inverted microscope (Carl Zeiss, Oberkochen, Germany) at 20x magnification, determining the % of β-gal-positive cells in randomly selected fields in four different images obtained in at least 3 independent experiments performed in duplicate.

SMILES: COc1cc([C@@H]2c3cc4c(cc3[C@@H](O[C@@H]3O[C@@H]5CO[C@@H](C)O[C@H]5[C@H](O)[C@H]3O)[C@H]3COC(=O)[C@H]23)OCO4)cc(OC)c1O [etoposide]
- number of β-gal-positive associated senescent NIH/3T3 cells: 44.11%
